US20230416262A1, “TRPML MODULATORS” (Casma Therapeutics, Inc., priority 2020, published 2023)

Legend:
TFEB = TFEB nuclear translocation assay; type: cell-based; conditions: Homo sapiens; HeLa wt or HeLa TRPML1 KO cells, treated for 2 hrs; ratio of nuclear to ring-region TFEB intensity
Outline: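 HeLa wild-type or TRPML1 KO cells treated 2 h with compound at 37 °C, PFA-fixed, immunostained for TFEB (Alexa 488) with Hoechst nuclei. Imaged at ×20, four fields/well. Value is ratio of nuclear to perinuclear-ring TFEB intensity, with nuclei counts.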

THP-1 cells = test: Lamp1 lysosomal exocytosis assay; type: cell-based; conditions: Homo sapiens, 55 min, 55 min incubation, top dose 20 μM
Outline: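 THP-1 cells (1e5/well) exposed to a 7-point 3-fold compound series, top final 20 μM, for 55 min at 37°C. Surface Lamp1 then stained with Lamp1-PE on ice in buffer containing 80 μM Dynasore, and read by flow cytometry as PE geometric mean on live, sytox-negative singlets.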

O=C(OCc1ccccc1)N1CCC2(CC1)CN(S(=O)(=O)c1ccc(C(F)F)cc1)c1cc(F)ccc12 [Compound I-131, benzyl 1-((4-(difluoromethyl)phenyl)sulfonyl)-6-fluorospiro[indoline-3,4′-piperidine]-1′-carboxylate]
EC50 (TFEB): ≤ 2000 nM
EC50 (THP-1 cells): ≥ 5.01 µM

O=C(OCc1ccccc1)N1CCC2(CC1)CN(C(=O)C1(c3ccccc3)CC1)c1ccccc12 [Compound I-191, benzyl 1-(1-phenylcyclopropanecarbonyl)-1,2-dihydrospiro[indole-3,4′-piperidine]-1′-carboxylate]
EC50 (TFEB): 2010 to 8000 nM
EC50 (THP-1 cells): ≥ 5.01 µM

O=C(OCc1ccccc1)N1CCC2(CC1)CN(S(=O)(=O)c1ccc(C(F)(F)C3CC3)cc1)c1ccccc12 [Compound I-139, benzyl 1-((4-(cyclopropyldifluoromethyl)phenyl)sulfonyl)spiro[indoline-3,4′-piperidine]-1′-carboxylate]
EC50 (TFEB): ≤ 2000 nM
EC50 (THP-1 cells): ≤ 0.5 µM

CC1(C)COc2ccc(S(=O)(=O)N3CC4(CCCC4)c4ccccc43)cc21 [Compound I-5, 1′-[(3,3-dimethyl-2,3-dihydro-1-benzofuran-5-yl)sulfonyl]-1′,2′-dihydrospiro[cyclopentane-1,3′-indole]]
EC50 (TFEB): ≤ 2000 nM
EC50 (THP-1 cells): ≥ 5.01 µM

CC1(C)COc2ccc(S(=O)(=O)N3CC4(CCCC4)c4c(F)cccc43)cc21 [Compound I-100, 1′-[(3,3-dimethyl-2,3-dihydro-1-benzofuran-5-yl)sulfonyl]-4′-fluoro-1′,2′-dihydrospiro[cyclopentane-1,3′-indole]]
EC50 (TFEB): ≤ 2000 nM
EC50 (THP-1 cells): ≥ 5.01 µM

CN(C)S(=O)(=O)c1ccc(S(=O)(=O)N2CC3(CCCC3)c3ccccc32)cc1 [Compound I-68, 4-({1′,2′-dihydrospiro[cyclopentane-1,3′-indol]-1′-yl}sulfonyl)-N,N-dimethylbenzene-1-sulfonamide]
EC50 (TFEB): ≤ 2000 nM
EC50 (THP-1 cells): ≤ 0.5 µM

O=C(NC1COc2ccccc2C1)N1CCC2(CC1)CN(S(=O)(=O)c1ccc(C(F)F)cc1)c1ccccc12 (stereo not shown) [Compound I-222, N-(chroman-3-yl)-1-((4-(difluoromethyl)phenyl)sulfonyl)spiro[indoline-3,4′-piperidine]-1′-carboxamide]
EC50 (TFEB): ≤ 2000 nM
EC50 (THP-1 cells): ≥ 5.01 µM

O=C(Nc1ccc2c(c1)OCO2)N1CCC2(CC1)CN(S(=O)(=O)c1ccc(C(F)F)cc1)c1ccccc12 [Compound I-220, N-(benzo[d][1,3]dioxol-5-yl)-1-((4-(difluoromethyl)phenyl)sulfonyl)spiro[indoline-3,4′-piperidine]-1′-carboxamide]
EC50 (TFEB): 2010 to 8000 nM
EC50 (THP-1 cells): ≥ 5.01 µM

O=S(=O)(c1ccc(C2CC2(F)F)cc1)N1CC2(CCCC2)c2ccccc21 (stereo not shown) [Compound I-48, 1′-[4-(2,2-difluorocyclopropyl)benzenesulfonyl]-1′,2′-dihydrospiro[cyclopentane-1,3′-indole]]
EC50 (TFEB): 2010 to 8000 nM
EC50 (THP-1 cells): ≥ 5.01 µM

CN(C)S(=O)(=O)c1ccc(S(=O)(=O)N2CC3(CCN(CC(C)(F)F)CC3)c3ccccc32)cc1 [Compound I-97, 4-{[1′-(2,2-difluoropropyl)-1,2-dihydrospiro[indole-3,4′-piperidin]-1-yl]sulfonyl}-N,N-dimethylbenzene-1-sulfonamide]
EC50 (TFEB): ≤ 2000 nM
EC50 (THP-1 cells): 0.51 to 1 µM

O=S(=O)(c1ccc(C(F)F)cc1)N1CC2(CCN(CC(F)(F)F)C2)c2ccccc21 (stereo not shown) [Compound I-92, 1-[4-(difluoromethyl)benzenesulfonyl]-1′-(2,2,2-trifluoroethyl)-1,2-dihydrospiro[indole-3,3′-pyrrolidine]]
EC50 (TFEB): 2010 to 8000 nM
EC50 (THP-1 cells): ≥ 5.01 µM

O=C(OCc1ccccc1)N1CCC2(CC1)CN(S(=O)(=O)c1ccc3c(c1)CCS3(=O)=O)c1ccccc12 [Compound I-182, benzyl 1-((1,1-dioxido-2,3-dihydrobenzo[b]thiophen-5-yl)sulfonyl)spiro[indoline-3,4′-piperidine]-1′-carboxylate]
EC50 (TFEB): ≤ 2000 nM
EC50 (THP-1 cells): ≥ 5.01 µM

Cc1cccc(S(=O)(=O)N2CC3(CCCC3)c3ccccc32)c1 [Compound I-74, 1′-(3-methylbenzenesulfonyl)-1′,2′-dihydrospiro[cyclopentane-1,3′-indole]]
EC50 (TFEB): 2010 to 8000 nM
EC50 (THP-1 cells): ≥ 5.01 µM

CC1(C)Cc2cc(S(=O)(=O)N3CC4(CCCC4)c4ccccc43)ccc2O1 [Compound I-2, 1′-[(2,2-dimethyl-2,3-dihydro-1-benzofuran-5-yl)sulfonyl]-1′,2′-dihydrospiro[cyclopentane-1,3′-indole]]
EC50 (TFEB): 2010 to 8000 nM
EC50 (THP-1 cells): ≥ 5.01 µM

O=S(=O)(c1ccc2c(c1)CCC(C(F)F)O2)N1CC2(CCCC2)c2ccccc21 (stereo not shown) [Compound I-35, 1′-{[2-(difluoromethyl)-3,4-dihydro-2H-1-benzopyran-6-yl]sulfonyl}-1′,2′-dihydrospiro[cyclopentane-1,3′-indole]]
EC50 (TFEB): 2010 to 8000 nM
EC50 (THP-1 cells): ≥ 5.01 µM

O=C(OCc1ccccc1)N1CCC2(CC1)CN(S(=O)(=O)c1ccc(C(F)F)cc1)c1ccc(F)cc12 [Compound I-132]
EC50 (TFEB): ≤ 2000 nM
EC50 (THP-1 cells): ≥ 5.01 µM

O=C(OCc1cccnc1)N1CCC2(CC1)CN(S(=O)(=O)c1ccc(C(F)F)cc1)c1ccccc12 [Compound I-158, (pyridin-3-yl)methyl 1-[4-(difluoromethyl)benzenesulfonyl]-1,2-dihydrospiro[indole-3,4′-piperidine]-1′-carboxylate]
EC50 (TFEB): ≤ 2000 nM
EC50 (THP-1 cells): 0.51 to 1 µM

Cc1cc2n(n1)C1(CCCCC1)CN2S(=O)(=O)c1ccc(C(F)F)cc1 [Compound I-148, 1′-[4-(difluoromethyl)benzenesulfonyl]-6′-methyl-1′,2′-dihydrospiro[cyclohexane-1,3′-pyrazolo[1,5-a]imidazole]]
EC50 (TFEB): ≥ 10000 nM
EC50 (THP-1 cells): ≥ 5.01 µM

COC1CCC2(CC1)CN(S(=O)(=O)c1ccc(S(=O)(=O)N(C)C)cc1)c1ccccc12 (stereo not shown) [Compound I-119, 4-({4-methoxy-1′,2′-dihydrospiro[cyclohexane-1,3′-indol]-1′-yl}sulfonyl)-N,N-dimethylbenzene-1-sulfonamide]
EC50 (TFEB): ≤ 2000 nM
EC50 (THP-1 cells): 1.01 to 5 µM

Cc1nn2c(c1C)N(S(=O)(=O)c1ccc(S(=O)(=O)N(C)C)cc1)CC21CCCCC1 [Compound I-154, 4-({6′,7′-dimethyl-1′,2′-dihydrospiro[cyclohexane-1,3′-pyrazolo[1,5-a]imidazol]-1′-yl}sulfonyl)-N,N-dimethylbenzene-1-sulfonamide]
EC50 (TFEB): ≥ 10000 nM
EC50 (THP-1 cells): ≥ 5.01 µM

CC(C)S(=O)(=O)c1ccc(S(=O)(=O)N2CC3(CCN(C(=O)OCc4ccccc4)CC3)c3ccccc32)cc1 [Compound I-181, benzyl 1-[4-(propane-2-sulfonyl)benzenesulfonyl]-1,2-dihydrospiro[indole-3,4′-piperidine]-1′-carboxylate]
EC50 (TFEB): ≤ 2000 nM
EC50 (THP-1 cells): ≤ 0.5 µM

CN(C)S(=O)(=O)c1ccc(S(=O)(=O)N2CC3(CCCC3)c3c(F)cccc32)cc1 [Compound I-95, 4-({4′-fluoro-1′,2′-dihydrospiro[cyclopentane-1,3′-indol]-1′-yl}sulfonyl)-N,N-dimethylbenzene-1-sulfonamide]
EC50 (TFEB): ≤ 2000 nM
EC50 (THP-1 cells): ≤ 0.5 µM

CN(C(=O)C1CCC2(CC1)CN(S(=O)(=O)c1ccc(C(F)F)cc1)c1ccccc12)c1ccccc1 (stereo not shown) [Compound I-234, 1′-((4-(difluoromethyl)phenyl)sulfonyl)-N-methyl-N-phenylspiro[cyclohexane-1,3′-indoline]-4-carboxamide]
EC50 (TFEB): ≤ 2000 nM
EC50 (THP-1 cells): ≥ 5.01 µM
